Test results as given in patent US20180318199A1, “Pharmaceutical Composition Having Anti-Aging Properties against High-Glucose” (TAIWAN LEADER BIOTECH CORP., priority 2017, published 2018).

Tested on: wild-type N2 C. elegans
Test: C. elegans oxidative stress-resistance assay (Juglone)
Assay type: in vivo, Caenorhabditis elegans
Details: pretreatment 10 μM, 3 days; 250 μM Juglone 2.5, 3.5 and 4.5 h
Experimental: Please refer to FIG. 8A˜FIG. 8C, which are views showing the life span of wild-type C. elegans extended by ANM from oxidative stress. As shown in the figures, to further confirm the anti-oxidative property of ANM in vivo, C. elegans model is subjected. Wild-type N2 worms are pretreated with ANM for 3 days followed by exposure to oxidative stress. In FIG. 8A, to determine oxidative stress resistance, age synchronized wild-type L1 larvae are pretreated with ANM (10 and 20 μM) or DMSO (0.01%) for 3 days. Oxidative stress is induced by incubation of pre-treated worms with 250 μM Juglone for 2.5, 3.5 and 4.5 h and then scored for viability. Results are expressed as mean±S.E.M of three independent experiments. Statistical significance is ser at *P<0.05 as compared to control vs. sample treatment.
Age synchronized L1 larvae are incubated with liquid S-basal medium containing E. coli OP50 at a density of 1×10^9 cells. MI and 10 and 20 μM ANM or 0.01% DMSO (vehicle control) for 3 days. Subsequently, adult worms are subjected to oxidative stress assay. To induce oxidative stress, worms are incubated with Juglone (5-hydroxyl-1,4-naphthoquinone; Sigma), an ROS-generating agent. ANM treated and control worms are transferred to S-basal medium containing 250 μM Juglone, and incubated from 2.5, 3.5 and 4.5 h. After treatment, viable worms are scored. […] The test is performed triplicate.

## C=C(CCC(C)C1CCC2C3=C(C(=O)C(O)C21C)C1(C)CCC(O)C(C)C1CC3)C(C)C(=O)O (stereo not shown) [ANM, antcin M]
  survival rate of worms exposed to Juglone-induced oxidative stress: significantly increases
